The text below walks through data of PMC12005787, “Synthetic Lethality of SHP2 and XIAP Suppresses Proliferation and Metastasis in KRAS‐mutant Nonsmall Cell Lung Cancer” (Advanced Science, 2025).

Holding throughout (format): cell-based, human
Settings in all cases: 24 h

One test relates to NCI‐H2122 and A549 cells. Nature of the test: Cell scratch and cell migration assays. How it is done:
supplies are listed in Supplementary Table S5. The relevant reagents for protein extraction from Escherichia coli are listed in Supplementary Table S6. Inhibitory effects of embelin on KRAS-mutant and wild-type cells are listed in Supplementary Table S7.
For the adherent cell viability assay, cells in the logarithmic growth phase were seeded in 96-well culture plates at a density of 5×103 well-1 and incubated overnight. Diluted compounds or DMSO were added, or specific treatments were incubated at 37 °C and 5% CO2 for 24 h or 48 h. Cell viability was determined using CCK-8 or CellLightTM Cell Viability Assay Kit, according to the manufacturer's protocol. The luminescence signals of the treated samples were normalized to those of the DMSO group.
For spherical cell viability assays, cells in the logarithmic growth phase were inoculated ata density of 4×10^3 well-1 into 96-well spherical cell microplates and incubated at 37 °C, 5% CO2 for 24 h or 48 h. Cell viability was measured using the CellTiter-Glo® Luminescent Cell Viability 3D Cell Viability Assay Kit, according to the manufacturer’s protocol. […]
Finally, the staining results were recorded using an inverted microscope. […]
NCI-H2122 and A549 cells were seeded in six-well plates. […] Finally, the scratch was photographed using an inverted microscope and the wound healing status was recorded. […]

The subject of test [1] is NCI‐H2122 cells. Nature of the test: Apoptosis detection (Annexin-V-FITC/PI). The procedure:
(§1) NCI-H2122 cells treated with the given disposal were digested with trypsin, resuspended
(§2) in cold PBS, and centrifuged at room temperature (1000×g for 5 min) to discard the
supernatant. Approximately 100,000 cells were collected and 195 μL of Annexin V-FITC
conjugate was added to gently resuspend the cells and then 5 μL of Annexin V-FITC and 10
μL of propidium iodide (PI) staining solution were added respectively. They were then
incubated at 37 °C for 10-20 min in the dark, placed on ice, and passed through a flow
cytometer (Becton, Dickinson, Calibur, USA) for online detection. […]
(1 picture or pasted object on this page, not shown here)

The test system of test [2] is NCI‐H2122 cells. Nature of the test: ROS release assay. The procedure: incubated with a horseradish peroxidase (HRP)-conjugated secondary antibody at room
temperature for 2 h and then incubated with enhanced chemiluminescence (ECL) solutions for
15 s at room temperature. A fully automated gel imaging system (General Electric Company,
USA) was used for the exposure imaging.
NCI-H2122 cells were inoculated into 96-well plates specialized for high-content cell
imaging, treated with various drugs, fixed with 4% neutral formaldehyde, and sealed with 5%
BSA after permeabilization with 0.05% Triton X-100. Subsequently, the cells were incubated
with the given primary antibody overnight at 4 °C and then with corresponding fluorescent
secondary antibody in dark at room temperature for 1 h. […] (DAPI)
was applied to nuclear staining. Fluorescence images were captured using a high-content
analyzer (Thermo Scientific, USA).
as §1, §2
supernatant. […]
RNaseA) was incubated in dark at 37℃ for 30 min. Red fluorescence and light scattering
were detected by flow cytometry at 488 nm. Cell cycle results were analyzed and visualized […]
intracellular ROS levels were detected by flow cytometry (λa = 488 nm, λe = 525 nm). […]
sealed with a DAPI-containing anti-fluorescence quenching sealer for 30 min at room […]

Turning to `CC1(N)CCN(c2cnc(-c3cccc(Cl)c3Cl)c(N)n2)CC1` [SHP099], in the test on NCI‐H2122 and A549 cells, the “effect on cell mobility / migration” value is “poor effect on cell mobility”. For the same compound, in the test on NCI‐H2122 cells [1], the effect on apoptosis result is listed as “promoted apoptosis”. Besides, the “effect on ROS release” value in the test with NCI‐H2122 cells [2] was “promoted ROS release”.

Turning to `CCCCCCCCCCCC1=C(O)C(=O)C=C(O)C1=O` [Embelin], the “effect on cell mobility / migration” value in the test with NCI‐H2122 and A549 cells is recorded as “potently inhibit the migration capabilities”. Moreover, the effect on apoptosis result in the test with NCI‐H2122 cells [1] is “increased the proportion of early and late apoptotic cells”. For the same compound, the “effect on ROS release” value in the test with NCI‐H2122 cells [2] was “promoted ROS release”.
